The results in this text go back to ChEMBL document CHEMBL4265917, “Antibacterial and antioxidant activities for natural and synthetic dual-active compounds” (Eur J Med Chem, 2018).

A word on the MIC: it is the lowest concentration found to suppress growth. Lower therefore signals greater potency. A word on the IC50: it is the concentration that gives 50% inhibition.

Values after ≈ are worked out from the molar mass of the structure shown.

Common to all, as to type: functional
The test system of one assay is Staphylococcus aureus. The experiment in a line: Antibacterial activity against Staphylococcus aureus.
Assay [1] can be described thus: Antioxidant activity assessed as DPPH free radical scavenging activity. (Loss of DPPH colour is used to gauge radical scavenging.)
Another assay deals with Escherichia coli. The experiment in a line: Antibacterial activity against Escherichia coli.

On to `COc1cccc2c1OCC(c1nnn(Cc3cn(Cc4ccccc4)nn3)n1)=C2`, for which the MIC with Staphylococcus aureus came out at 10.5 µg/mL (≈ 26.2 µM); in the assay on Escherichia coli, 9.5 µg/mL (≈ 23.7 µM). In assay [1], the IC50 turned out to be 78.74 µg/mL (≈ 196 µM).
